Data reported in patent publication US8809341B2, “2,4-pyrimidinediamine compounds and uses as anti-proliferative agents” (Rigel Pharmaceuticals, Inc., priority 2003, dated 2014).

Assays:
Assay type in all cases: cell-based
A549 cells = test: in vitro antiproliferation assay, A549 (lung); details: A549 (lung) cells
Method in brief: (§1)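 IC50 values came from standard antiproliferation testing in cultured tumour cells; the A549 and H1299 lines are of lung origin.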

PC3 = test: in vitro antiproliferation assay, PC3 (prostate)
Method: (§2) The IC50 values of various compounds against a various different tumor cell lines were determined using standard in vitro antiproliferation assays. The tumor cell lines tested were as follows: A549 (lung); H1299 (lung), ACHN (kidney/p53 wt), CAKI (renal cell carcinoma), NCI-H460 (lung); HCT116 (colon/p53w0; HELA (cervix/p53 wt), HUH7 (liver/p53 wt), HUVEC (primary endothelial), LNCAP (prostate), HT-29 (colon); MCF-7 (breast); MCF-7 (breast/ER positive), MDA MB435S (breast); MDA MB231 (breast/ER negative), DU145 (prostate); BxPC-3 (pancreatic); SKOV-3 (ovarian); HepG2 (hepatic), NDHF primary normal human dermal fibroblast), SKMEL28 (breast/p53mut), SKMEL5 (breast/p53 wt), U20S (bone) and PC3 (prostate). […] A blank indicates the specified compound was not tested against the specified cell line.
(§3) Many of the compounds were tested against other cell lines. Their activity is reported in TABLE 15, below, where +”, “−”, “−/+” or “+/−” values are as described for TABLES 1-14. Where the cell line includes a value in a parenthetical, the value indicates the seeding density at which the assay was performed

HCT116 = test: in vitro antiproliferation assay, HCT116 (colon); details: HCT116 (colon); read-out: HCT116
Method: as §2, §3

H1299 cells = test: in vitro antiproliferation assay, H1299 (lung); details: H1299 (lung) cells
Method in brief: as §1

[1] = in vitro antiproliferation, Table 4, compounds with no designated stereochemistry tested as racemate
[2] = Table 5, in vitro antiproliferation
[3] = Table 7, in vitro antiproliferation

Row | Structure (SMILES) | IC50 (PC3) | IC50 (A549 cells; in vitro antiproliferation) | IC50 (A549 cells; antiproliferation) | also measured
1 | CNC(=O)COc1cccc(Nc2ncc(F)c(Nc3ccc4c(c3)NC(=O)C(C)O4)n2)c1 (racemic) [compound 256] | ≤ 20 µM | – | – | IC50 (A549 cells; [1]): ≤ 20 µM
2 | O=C1COc2ccc(Nc3nc(Nc4cccc(O)c4)ncc3F)cc2N1 [compound 254] | ≤ 20 µM | – | – | IC50 (A549 cells; [1]): ≤ 20 µM
3 | CNC(=O)COc1cccc(Nc2ncc(F)c(Nc3ccc4c(n3)NC(=O)CO4)n2)c1 [compound 418] | ≤ 20 µM | – | – | –
4 | Fc1cnc(Nc2cccc(OCCN3CCOCC3)c2)nc1Nc1ccc2c(c1)OCCO2 [compound 500] | > 20 µM | – | – | –
5 | CNC(=O)COc1ccc(Nc2ncc(F)c(Nc3ccc4c(c3)OCCO4)n2)cc1 [compound 501] | > 20 µM | – | – | IC50 (A549 cells; [2]): > 20 µM
6 | Fc1cnc(Nc2ccc(OCCN3CCOCC3)cc2)nc1Nc1ccc2c(c1)OCCO2 [compound 502] | > 20 µM | – | – | IC50 (A549 cells; [2]): > 20 µM
7 | CNC(=O)COc1cccc(Nc2ncc(F)c(Nc3ccc4c(c3)OC(F)(F)C(F)(F)O4)n2)c1 [compound 503] | > 20 µM | – | – | IC50 (A549 cells; [2]): < 20 µM; IC50 (HCT116): ≤ 20 µM
8 | O=C(COc1cccc(Nc2ncc(F)c(Nc3ccc4c(c3)OCCO4)n2)c1)NC1CCCCC1 [compound 508] | > 20 µM | – | – | IC50 (A549 cells; [2]): > 20 µM
9 | CN(CCO)C(=O)COc1cccc(Nc2ncc(F)c(Nc3ccc4c(c3)OCCO4)n2)c1 [compound 509] | > 20 µM | – | – | IC50 (A549 cells; [2]): > 20 µM
10 | CN(C)CCOc1cccc(Nc2ncc(F)c(Nc3ccc4c(c3)OCCO4)n2)c1 [compound 510] | > 20 µM | – | – | IC50 (A549 cells; [2]): > 20 µM
11 | CC(C)c1ccc(Nc2ncc(F)c(Nc3ccc4c(c3)OCCO4)n2)cc1 [compound 511] | ≤ 20 µM | – | – | IC50 (A549 cells; [2]): > 20 µM
12 | CNC(=O)COc1cccc(Nc2ncc(F)c(Nc3ccc4c(c3)OCCO4)n2)c1 [compound 516] | ≤ 20 µM | – | – | –
13 | COC(=O)COc1cccc(Nc2ncc(F)c(Nc3ccc4c(c3)OCCCO4)n2)c1 [compound 580] | > 20 µM | – | – | IC50 (A549 cells; [2]): > 20 µM
14 | CNC(=O)c1cc2cc(Nc3ncc(F)c(Nc4ccc(C(C)(C)C)cc4)n3)ccc2o1 [compound 642] | ≤ 20 µM | – | – | –
15 | CN(C)C(=O)c1cc2cc(Nc3ncc(F)c(Nc4cccc(O)c4)n3)ccc2o1 [compound 643] | > 20 µM | – | – | IC50 (A549 cells; [3]): > 20 µM
16 | COC(=O)c1cc2cc(Nc3ncc(F)c(Nc4ccc5c(c4)NC(=O)C(F)(F)O5)n3)ccc2o1 [compound 676] | ≤ 20 µM | – | – | IC50 (A549 cells; [3]): ≤ 20 µM
17 | CNC(=O)COc1cccc(Nc2ncc(F)c(Nc3ccc(OC(F)(F)F)c(Cl)c3)n2)c1 [compound 699] | > 20 µM | ≤ 20 µM | – | –
18 | Oc1ccc(Nc2ncc(F)c(Nc3ccc(O)c(F)c3)n2)cc1F [compound 742] | ≤ 20 µM | – | – | –
19 | Oc1cccc(Nc2ncc(F)c(Nc3ccc(OCCN4CCOCC4)cc3)n2)c1 [compound 746] | > 20 µM | > 20 µM | – | –
20 | CNC(=O)COc1ccc(Nc2ncc(F)c(Nc3ccc(C(C)(C)C)cc3)n2)cc1 [compound 747] | ≤ 20 µM | > 20 µM | – | –
21 | CNC(=O)COc1cccc(Nc2ncc(F)c(Nc3ccc(C(C)(C)C)cc3)n2)c1 [compound 748] | > 20 µM | > 20 µM | – | –
22 | CC(C)(C)c1ccc(Nc2nc(Nc3cccc(OCC(=O)O)c3)ncc2F)cc1 [compound 749] | > 20 µM | > 20 µM | – | –
23 | CC(C)(C)c1ccc(Nc2nc(Nc3cccc(OCCO)c3)ncc2F)cc1 [compound 750] | ≤ 20 µM | > 20 µM | – | –
24 | CNC(=O)COc1cccc(Nc2ncc(F)c(Nc3ccc(OC(C)C)cc3)n2)c1 [compound 751] | > 20 µM | < 20 µM | – | –
25 | CC(C)Oc1ccc(Nc2nc(Nc3cccc(OCC(=O)O)c3)ncc2F)cc1 [compound 752] | > 20 µM | > 20 µM | – | –
26 | CNC(=O)COc1cccc(Nc2ncc(F)c(Nc3ccc(OC)c(OC)c3)n2)c1 [compound 753] | > 20 µM | > 20 µM | – | –
27 | COc1ccc(Nc2nc(Nc3cccc(OCC(=O)NCC(O)CO)c3)ncc2F)cc1OC (stereo not shown) [compound 754] | > 20 µM | > 20 µM | – | –
28 | O=C(COc1cccc(Nc2ncc(F)c(Nc3cccc(O)c3)n2)c1)N1CCNCC1 [compound 761] | > 20 µM | – | – | –
29 | O=C(COc1cccc(Nc2ncc(F)c(Nc3cccc(O)c3)n2)c1)N1CCOCC1 [compound 762] | ≤ 20 µM | > 20 µM | – | –
30 | CCOC(=O)COc1cccc(Nc2nc(Nc3cccc(O)c3)ncc2F)c1 [compound 763] | > 20 µM | > 20 µM | – | IC50 (H1299 cells; in vitro antiproliferation): ≤ 20 µM

Further lines, with some results ahead:

Row | IC50 (PC3) | IC50 (A549 cells; in vitro antiproliferation) | IC50 (A549 cells; antiproliferation) | Structure (SMILES) | also measured
31 | > 20 µM | > 20 µM | – | CC(C)c1ccc(Nc2ncc(F)c(Nc3cccc(O)c3)n2)cc1 [compound 764] | –
32 | ≤ 20 µM | ≤ 20 µM | – | COc1cc(Nc2ncc(F)c(Nc3cccc(O)c3)n2)cc(OC)c1 [compound 765] | –
33 | > 20 µM | > 20 µM | – | CCOC(=O)COc1cccc(Nc2ncc(F)c(Nc3cc(OC)cc(OC)c3)n2)c1 [compound 766] | IC50 (H1299 cells; in vitro antiproliferation): ≤ 20 µM
34 | > 20 µM | > 20 µM | – | CNC(=O)COc1cccc(Nc2ncc(F)c(Nc3cc(OC)cc(OC)c3)n2)c1 [compound 767] | –
35 | ≤ 20 µM | ≤ 20 µM | – | CNC(=O)COc1cccc(Nc2ncc(F)c(Nc3ccc(C)c(OC)c3)n2)c1 [compound 790] | –
36 | – | ≤ 20 µM | – | Cc1cc(C)cc(Nc2ncc(F)c(Nc3cc(C)cc(C)c3)n2)c1 [compound 841] | IC50 (H1299 cells; in vitro antiproliferation): ≤ 20 µM; IC50 (HCT116): ≤ 20 µM
37 | – | ≤ 20 µM | – | COc1cc(Nc2nc(Nc3cc(C)c(C)c(C)c3)ncc2F)cc(OC)c1 [compound 845] | IC50 (H1299 cells; in vitro antiproliferation): ≤ 20 µM; IC50 (HCT116): ≤ 20 µM
38 | – | – | ≤ 20 µM | COCCOc1cccc(Nc2ncc(F)c(Nc3cc(O)c(O)c(OCCOC)c3)n2)c1 [compound 933] | IC50 (H1299 cells; antiproliferation): ≤ 20 µM; IC50 (HCT116): ≤ 20 µM
39 | > 20 µM | – | > 20 µM | Fc1ccc(Nc2ncc(F)c(Nc3ccc(F)c(Cl)c3)n2)cc1Cl [compound 938] | –
40 | ≤ 20 µM | – | > 20 µM | CCOC(=O)COc1cccc(Nc2ncc(F)c(Nc3cc(C)c(O)c(C)c3)n2)c1 [compound 947] | IC50 (H1299 cells; antiproliferation): ≤ 20 µM
41 | ≤ 20 µM | – | > 20 µM | Cc1cc(Nc2nc(Nc3cccc(OCC(=O)N4CCOCC4)c3)ncc2F)cc(C)c1O [compound 948] | –
42 | > 20 µM | – | > 20 µM | Cc1cc(Nc2nc(Nc3cccc(OCC(=O)N4CCOCC4)c3)ncc2F)cc(Cl)c1O [compound 954] | –
43 | > 20 µM | – | > 20 µM | CCOC(=O)COc1cccc(Nc2nc(Nc3cccc(C(C)(C)C)c3)ncc2F)c1 [compound 955] | IC50 (H1299 cells; antiproliferation): > 20 µM
44 | > 20 µM | – | > 20 µM | CNC(=O)COc1cccc(Nc2nc(Nc3cccc(C(C)(C)C)c3)ncc2F)c1 [compound 956] | –
45 | ≤ 20 µM | – | ≤ 20 µM | Cc1cc(Nc2nc(Nc3cccc(OCCN4CCOCC4)c3)ncc2F)cc(Cl)c1O [compound 957] | –
46 | > 20 µM | – | > 20 µM | CCOC(=O)COc1cccc(Nc2ncc(F)c(Nc3cccc(C(C)(C)C)c3)n2)c1 [compound 958] | IC50 (H1299 cells; antiproliferation): > 20 µM
47 | > 20 µM | – | > 20 µM | Cc1cc(Nc2ncc(F)c(Nc3cccc(C(C)(C)C)c3)n2)cc(Cl)c1O [compound 959] | –
48 | > 20 µM | – | > 20 µM | CNC(=O)COc1cccc(Nc2ncc(F)c(Nc3cccc(C(C)(C)C)c3)n2)c1 [compound 960] | –
49 | > 20 µM | – | < 20 µM | CC(C)(C)c1cccc(Nc2nc(Nc3cccc(OCC(=O)NCC(O)CO)c3)ncc2F)c1 (stereo not shown) [compound 961] | –
50 | > 20 µM | – | > 20 µM | CC(C)(C)c1cccc(Nc2nc(Nc3cccc(OCC(=O)O)c3)ncc2F)c1 [compound 962] | IC50 (H1299 cells; antiproliferation): > 20 µM
51 | > 20 µM | – | > 20 µM | O=C(O)COc1cccc(Nc2ncc(F)c(Nc3cccc(O)c3)n2)c1 [compound 978] | –
52 | > 20 µM | – | > 20 µM | Cc1cc(Nc2nc(Nc3cccc(OCC(=O)O)c3)ncc2F)cc(C)c1O [compound 979] | IC50 (H1299 cells; antiproliferation): ≤ 20 µM
53 | > 20 µM | – | ≤ 20 µM | Cc1cc(Nc2nc(Nc3cccc(OCC(=O)N4CCNCC4)c3)ncc2F)cc(C)c1O [compound 980] | –
54 | > 20 µM | – | > 20 µM | COC(=O)COc1cccc(Nc2ncc(F)c(Nc3cc(C)c(O)c(C)c3)n2)c1 [compound 982] | –
55 | > 20 µM | – | ≤ 20 µM | Cc1cc(Nc2nc(Nc3cccc(OCC(=O)N4CCNCC4)c3)ncc2F)cc(Cl)c1O [compound 983] | –
56 | > 20 µM | – | > 20 µM | COC(=O)COc1cccc(Nc2ncc(F)c(Nc3cc(C)c(OC)c(C)c3)n2)c1 [compound 985] | –
57 | > 20 µM | – | > 20 µM | COc1c(C)cc(Nc2nc(Nc3cccc(OCC(=O)N4CCNCC4)c3)ncc2F)cc1C [compound 986] | –
58 | ≤ 20 µM | – | > 20 µM | COc1c(C)cc(Nc2nc(Nc3cccc(OCCN4CCNCC4)c3)ncc2F)cc1C [compound 987] | –
